The series has as its system Serpinh1 Prx1-cre conditional KO mice. Nature of the series: Prenatal 4-PBA treatment of pregnant females in the Serpinh1 Prx1-cre conditional KO (Hsp47-Prx1) lethal osteogenesis imperfecta mouse model. In kind it is in vivo. To be noted: for perinatal lethality due to respiratory insufficiency: Hsp47-Prx1 model. An excerpt: Mutations in SERPINH1 (HSP47) cause osteogenesis imperfecta (OI). Patients with mutations in these genes are severely affected by bone fragility and pulmonary dysfunction. Serpinh1 Prx1-cre conditional KO mice were generated. These animals die immediately after birth due to respiratory insufficiency. The Prx1 gene is expressed in lungs' and limbs' mesenchymal lineages, causing phenotypes in both the pulmonary and skeletal system. Right after birth, all affected animals become cyanotic and die.
Animals were treated with 4-PBA. At least 12 pregnant females (SerpinH1−/− crossed with males Serpinh1+/−Prx1 carriers), who were expected to give birth to 25% affected pups (Serpinh1−/−Prx1 positive) were treated with 1 gr/Kg/day of 4-PBA in drinking water since the gestational age of E14 until birth.
Respiratory function was analyzed in treated vs. control animals by cyanotic observations, X-rays, lung floatability test, whole body oxymetry and histology. Multiple dosages were tested: 1, 2 and 5 gr/Kg/day, 1 gr/Kg/day being the minimum dosage to obtain the effect in 100% of individuals. 5 gr/Kg/day was discarded as 2 of 12 treated pups in two independent litters died without presenting the phenotype and showing hematomas. Other pregnancy stages were also tested starting the treatment from E10 to E17.
4-PBA treatment rescue perinatal lethality due to respiratory insufficiency in Hsp47-Prx1 model. A. X-Rays show a dark spot corresponding with air in the lungs in healthy animals (red arrows). […] B. Histological architecture is collapse in mutants (B′) but rescued in 4-PBA treated animals (B″). C. Mutants show cyanotic aspect at birth (C′). This is also rescued in 4-PBA treated animals (C″). D. Oxygen levels are rescued in treated mutants as observed by oxymeter measures right after birth.

Structures are written as SMILES. “Also recorded” adds a separate entry of the source.

As to `O=C(O)CCCc1ccccc1` [4-PBA, 4-phenylbutyric acid], the “individuals in which the effect was obtained” value (1 gr/Kg/day) was 100%. The “survival of pups with the affected genotype born from treated mothers” value (1 gr/Kg/day in drinking water to pregnant females, E14 until birth, untreated affected pups die immediately after birth) was “around 24 hours”. Moreover, the “treated pups that died without presenting the phenotype and showing hematomas” value (5 gr/Kg/day, two independent litters, dosage discarded) is 2 of 12. Besides, the “perinatal lethality due to respiratory insufficiency” value is listed as “rescue” (prenatal treatment) and “rescues” (prenatal treatment, listed as 4-phenylbutyric). Moreover, for the setting “collapsed in mutants, FIG. 1B”, the lung histological architecture entry is given as “rescued”. Also, the “minimum dosage to obtain the effect in 100% of individuals” value (dosages tested: 1, 2 and 5 gr/Kg/day) is on record as 1 gr/Kg/day. For the same molecule, the embryo viability result (mouse, in vivo) is “possible decreased embryo viability”. Moreover, the “unproductive pregnancies of 4 plugged females” value (mouse, in vivo) is listed as “two”. In addition, the “cyanosis of treated affected animals” value (prenatal treatment, cyanotic observations at birth) is given as “did not become cyanotic; also recorded: rescued”. Also, under “prenatal treatment, oxymeter measures right after birth”, the “oxygen levels (whole body oxymetry)” value is “normal levels of oxygen; also recorded: rescued”. Moreover, the “air in the lungs on X-rays” value (treated mutants, FIG. 1A) is reported as “show air in the lungs”. In addition, the lung function improvement result (treatments performed between E13 to E17) is given as “observed similarly”.

Values taken from patent US20220105061A1, “COMPOSITIONS AND METHODS FOR TREATING RESPIRATORY INSUFFICIENCY” (The Regents of the University of California, priority 2019, published 2022).
